Source: the supplement of paper PMC10307832

Key:
Assay in all cases: relative viability (nuclei count vs DMSO), 5 days (fraction); higher = more cells survive
Pemetrexed + Navitoclax = compound: Nc1nc2[nH]cc(CCc3ccc(C(=O)N[C@@H](CCC(=O)O)C(=O)O)cc3)c2c(=O)[nH]1 [Pemetrexed] + CC1(C)CCC(c2ccc(Cl)cc2)=C(CN2CCN(c3ccc(C(=O)NS(=O)(=O)c4ccc(N[C@H](CCN5CCOCC5)CSc5ccccc5)c(S(=O)(=O)C(F)(F)F)c4)cc3)CC2)C1 [Navitoclax] (partner 0.5 µM)
Outline: (§1)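 Relative viability divides the nuclei count in treated wells by that in vehicle wells. Lung cancer cell lines were seeded in 1536-well plates, dosed by pin tool the next day, and fixed and stained after 5 days in one step with final 0.05% Triton X-100, 1% formaldehyde and 1 ug/ml Hoechst. Dosing was a single drug or a fixed anchor-drug dose plus five library-drug doses (not always all listed) in √10 steps, and values are medians of duplicate plates imaged at 4×.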

Idelalisib + Palbociclib = compound: CC[C@H](Nc1ncnc2[nH]cnc12)c1nc2cccc(F)c2c(=O)n1-c1ccccc1 [Idelalisib] + CC(=O)c1c(C)c2cnc(Nc3ccc(N4CCNCC4)cn3)nc2n(C2CCCC2)c1=O [Palbociclib] (partner 0.5 µM)
Outline: as §1

Pemetrexed + Decitabine = compound: Nc1nc2[nH]cc(CCc3ccc(C(=O)N[C@@H](CCC(=O)O)C(=O)O)cc3)c2c(=O)[nH]1 [Pemetrexed] + Nc1ncn([C@H]2C[C@H](O)[C@@H](CO)O2)c(=O)n1 [Decitabine] (partner 2 µM)
Outline: as §1

Pemetrexed + Luminespib = compound: Nc1nc2[nH]cc(CCc3ccc(C(=O)N[C@@H](CCC(=O)O)C(=O)O)cc3)c2c(=O)[nH]1 [Pemetrexed] + CCNC(=O)c1noc(-c2cc(C(C)C)c(O)cc2O)c1-c1ccc(CN2CCOCC2)cc1 [Luminespib] (partner 0.01 µM)
Outline: as §1

| Cell Line | relative viability (Pemetrexed + Navitoclax; first compound 0.006325 µM) | relative viability (Pemetrexed + Navitoclax; first compound 0.02 µM) | relative viability (Pemetrexed + Navitoclax; first compound 0.06325 µM) | relative viability (Pemetrexed + Navitoclax; first compound 0.2 µM) | relative viability (Idelalisib + Palbociclib; first compound 0.04 µM) | relative viability (Idelalisib + Palbociclib; first compound 0.1265 µM) | relative viability (Idelalisib + Palbociclib; first compound 0.4 µM) | relative viability (Idelalisib + Palbociclib; first compound 1.265 µM) | relative viability (Idelalisib + Palbociclib; first compound 4 µM) | relative viability (Pemetrexed + Decitabine; first compound 0.006325 µM) | relative viability (Pemetrexed + Decitabine; first compound 0.02 µM) | relative viability (Pemetrexed + Decitabine; first compound 0.06325 µM) | relative viability (Pemetrexed + Decitabine; first compound 0.2 µM) | relative viability (Pemetrexed + Navitoclax; first compound 0.002 µM) | relative viability (Pemetrexed + Decitabine; first compound 0.002 µM) | relative viability (Pemetrexed + Luminespib; first compound 0.002 µM) | relative viability (Pemetrexed + Luminespib; first compound 0.006325 µM) | relative viability (Pemetrexed + Luminespib; first compound 0.02 µM) | relative viability (Pemetrexed + Luminespib; first compound 0.06325 µM) | relative viability (Pemetrexed + Luminespib; first compound 0.2 µM) |
| --- | --- | --- | --- | --- | --- | --- | --- | --- | --- | --- | --- | --- | --- | --- | --- | --- | --- | --- | --- | --- |
| HCC-78 | 0.646 | 0.547 | 0.242 | 0.207 | 0.443 | 0.446 | 0.411 | 0.466 | 0.352 | 0.685 | 0.777 | 0.324 | 0.307 | – | – | – | – | – | – | – |
| HCC-366 | 0.95 | 0.974 | 1.02 | 0.963 | 0.35 | 0.384 | 0.39 | 0.393 | 0.353 | 0.387 | 0.346 | 0.329 | 0.211 | 1.07 | 0.331 | – | – | – | – | – |
| HCC-827 | 0.964 | 1.13 | 1.02 | 0.908 | 0.507 | 0.471 | 0.426 | 0.349 | 0.378 | 0.341 | 0.409 | 0.214 | 0.305 | 0.926 | 0.264 | 0.541 | 0.633 | 0.856 | 0.724 | 0.382 |
| HOP-62 | 1.01 | 1.19 | 0.906 | 0.894 | 0.441 | 0.468 | 0.411 | 0.468 | 0.328 | 0.262 | 0.249 | 0.204 | 0.2 | 1.03 | 0.198 | 0.85 | 0.936 | 0.851 | 0.814 | 0.932 |
| IA-LM | 0.798 | 0.856 | 0.711 | 0.483 | – | – | – | – | – | – | – | – | – | 0.773 | – | – | – | – | – | – |
| LC-2-ad | 0.437 | 0.363 | 0.159 | 0.162 | 0.454 | 0.518 | 0.513 | 0.503 | 0.49 | 0.771 | 0.779 | 0.755 | 0.316 | 0.304 | 0.807 | 1.09 | 0.989 | 0.709 | 0.313 | 0.303 |
| LCLC-97TM1 | 0.279 | 0.674 | 0.375 | 0.394 | 0.247 | 0.248 | 0.179 | 0.239 | 0.158 | 0.245 | 0.203 | 0.233 | 0.209 | 0.393 | 0.241 | 0.906 | 0.74 | 0.81 | 0.761 | 0.65 |
| LCLC-103H | – | – | – | – | 0.515 | 0.421 | 0.472 | 0.472 | 0.451 | 0.723 | 0.743 | 0.699 | 0.76 | – | 0.722 | 0.963 | 0.942 | 1.02 | 0.796 | 0.94 |
| LK-2 | 0.844 | 0.823 | 0.8 | 0.592 | 0.603 | 0.832 | – | 0.609 | 0.659 | 0.358 | 0.259 | 0.251 | 0.263 | 0.835 | 0.277 | 0.179 | 0.181 | 0.187 | 0.165 | 0.208 |
| LOU-NH91 | 0.727 | 0.708 | 0.431 | 0.416 | 0.548 | 0.545 | 0.629 | 0.544 | 0.547 | 0.78 | 0.798 | 0.66 | 0.578 | 0.629 | 0.811 | 0.399 | 0.318 | 0.374 | 0.298 | 0.315 |
| NCI-H358 | – | – | – | – | 0.178 | 0.138 | 0.137 | 0.153 | 0.153 | 0.208 | 0.214 | 0.155 | 0.127 | – | 0.177 | 0.268 | 0.368 | 0.227 | 0.367 | 0.146 |
| NCI-H522 | – | – | – | – | 0.958 | 0.793 | 0.903 | 0.947 | 0.796 | 0.692 | 0.721 | 0.691 | 0.73 | – | 0.624 | 1.21 | 1 | 1.29 | 1.12 | 1.24 |
| NCI-H596 | 0.811 | 0.828 | 0.898 | 0.419 | – | – | – | – | – | 1.03 | 0.972 | 0.839 | 0.553 | 0.98 | 0.996 | 0.97 | 1.01 | 1.14 | 0.945 | 0.679 |
| NCI-H650 | – | – | – | – | 0.327 | 0.314 | 0.309 | 0.312 | 0.296 | 0.31 | – | 0.293 | 0.313 | – | 0.287 | 0.751 | 0.733 | 0.732 | 0.705 | 0.842 |
| NCI-H661 | – | – | – | – | 0.417 | 0.425 | 0.398 | 0.459 | 0.421 | 0.513 | 0.646 | 0.608 | 0.559 | – | 0.586 | 0.958 | 0.882 | 0.934 | 0.884 | 0.85 |
| NCI-H1299 | 0.981 | 1.1 | 1.04 | 1 | – | – | – | – | – | – | – | – | – | 1.05 | – | – | – | – | – | – |
| NCI-H1563 | – | – | – | – | – | – | – | – | – | – | – | – | – | – | – | 0.496 | 0.505 | 0.562 | 0.481 | 0.569 |
| NCI-H1623 | – | – | – | – | – | – | – | – | – | – | – | – | – | – | – | 0.628 | 0.325 | 0.503 | 0.443 | 0.613 |
| NCI-H1648 | – | – | – | – | 0.239 | 0.291 | 0.298 | 0.262 | 0.315 | 0.431 | 0.655 | 0.508 | 0.394 | – | 0.407 | – | – | – | – | – |
| NCI-H1703 | 0.967 | 1.86 | 1.24 | 1.09 | – | – | – | – | – | – | – | – | – | 1.04 | – | – | – | – | – | – |
| NCI-H2228 | 0.87 | 0.964 | 0.696 | 0.368 | 0.633 | 0.846 | 0.737 | 0.958 | 0.743 | – | – | – | – | 0.739 | – | 0.18 | – | 0.153 | 0.115 | 0.124 |
| NCI-H2342 | – | – | – | – | 0.485 | 0.495 | 0.484 | 0.519 | 0.473 | 0.701 | 0.767 | 0.716 | 0.835 | – | 0.675 | 0.678 | 0.8 | 0.676 | 0.799 | 0.788 |
| SW 900 | – | – | – | – | 0.493 | 0.543 | 0.397 | 0.531 | 0.407 | 0.433 | 0.553 | 0.377 | 0.424 | – | 0.342 | 0.198 | 0.147 | 0.18 | 0.181 | 0.158 |
